Test results reported in ChEMBL document CHEMBL1201862, “PubChem BioAssay data set” (2004).
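All cell lines were grown in 96-well plates and treated with compound for 48 hours. GI50 marks 50% less growth.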 The source made the active and inactive calls. Rule as the data show it: active = GI50 up to about 1.1 µM and inactive = higher.

How the values were obtained:
Experiment in all cases: NCI tumour cell line growth inhibition, 48 h
[1] = system: SNB-78
[2] = system: KM-20L2
[3] = system: HOP-18
[4] = system: LXFL 529
[5] = system: M19-MEL
[6] = system: DMS-273
[7] = system: DMS-114
[8] = system: RXF 631
[9] = system: XF498

Compound	GI50 [1]	GI50 [2]	GI50 [3]	GI50 [4]	GI50 [5]	GI50 [6]	GI50 [7]	GI50 [8]	GI50 [9]
COc1ccc(C2=NN(c3nsc4ccccc34)C(=O)CC2)cc1	> 100 µM (inactive)	> 100 µM (inactive)	12.6 µM (inactive)	75 µM (inactive)	> 100 µM (inactive)	> 100 µM (inactive)	58.5 µM (inactive)		
COc1cccc(CC(C)N)c1 (stereo not given)	> 100 µM (inactive)	> 100 µM (inactive)	> 100 µM (inactive)	> 100 µM (inactive)		> 100 µM (inactive)	> 100 µM (inactive)	> 100 µM (inactive)	
COc1c(Cl)cc(Cl)cc1S(=O)O	> 100 µM (inactive)			> 100 µM (inactive)	> 100 µM (inactive)		> 100 µM (inactive)		> 100 µM (inactive)
CC(C)(C)[Si](OC1CCOC1=O)(c1ccccc1)c1ccccc1 (stereo not given)	32.2 µM (inactive)	14.5 µM (inactive)	18.9 µM (inactive)	20.7 µM (inactive)	19.2 µM (inactive)			22.5 µM (inactive)	11.1 µM (inactive)
NC(=O)c1csc(C2O[C@@H](COP(=O)(O)OP(=O)(O)OC[C@H]3OC(n4cnc5c(N)ncnc54)[C@H](O)[C@@H]3O)[C@H](O)[C@@H]2O)n1 (stereo not given in full)	> 100 µM (inactive)	> 100 µM (inactive)	> 100 µM (inactive)	> 100 µM (inactive)		99.5 µM (inactive)	> 100 µM (inactive)		33.2 µM (inactive)
CC(C(=O)n1nnc2ccccc21)N(c1ccccc1)c1ccccc1 (stereo not given)	> 100 µM (inactive)	> 100 µM (inactive)		> 100 µM (inactive)	> 100 µM (inactive)	91.6 µM (inactive)			
COc1ccc(C2CC(c3sc(Nc4ccc(C)cc4)nc3C)=NN2)cc1 (stereo not given)	22.1 µM (inactive)	16.1 µM (inactive)	15.3 µM (inactive)		> 44.1 µM (inactive)	18.8 µM (inactive)	14.1 µM (inactive)		21 µM (inactive)
C=C1CC(OC)(C(O)C(=O)N[C@H]2OCO[C@H]3C2O[C@H](C[C@@H](COC)OC)C(C)(C)C3OC)O[C@H](C)[C@@H]1C (stereo not given in full)	< 0.00482 µM (active)	< 0.00482 µM (active)	< 0.00482 µM (active)		< 0.00482 µM (active)	< 0.00482 µM (active)	< 0.00482 µM (active)		< 0.00482 µM (active)
NS(=O)(=O)c1cc2c(cc1Cl)NC(C(=O)NNC(=O)c1ccncc1)=NS2(=O)=O		> 100 µM (inactive)	> 100 µM (inactive)	> 100 µM (inactive)	> 100 µM (inactive)	> 100 µM (inactive)	> 100 µM (inactive)		> 100 µM (inactive)
O=P(CCOc1ccccc1OCCP(=O)(c1ccccc1)c1ccc2c(c1)OCCOCCOCCOCCO2)(c1ccccc1)c1ccc2c(c1)OCCOCCOCCOCCO2 (stereo not given)	> 100 µM (inactive)	> 100 µM (inactive)		> 100 µM (inactive)	> 100 µM (inactive)	> 100 µM (inactive)	> 100 µM (inactive)		> 100 µM (inactive)
NC(=O)c1ncn2c1NC(=O)CC2	> 45.3 µM (inactive)	> 100 µM (inactive)	> 100 µM (inactive)		> 100 µM (inactive)	> 100 µM (inactive)	> 100 µM (inactive)		> 100 µM (inactive)
CON(C)C(=O)C(Cc1ccccc1)NC(=O)OCc1ccccc1 (stereo not given)	> 100 µM (inactive)	> 100 µM (inactive)		> 100 µM (inactive)	> 100 µM (inactive)	> 100 µM (inactive)	58.9 µM (inactive)		64.3 µM (inactive)
